# Where “and” joins values, the source holds several entries; their conditions need not be identical. Identical values can stand only once.
# Key:
# [1] = Pharmacokinetic study of [^14C] DHA and unchanged DHA, single i.v. dose; format: in vivo, rats; settings: for fourth peak concentration of radioactivity: 6 hours; for first peak concentration of radioactivity: at one minute
# Method: Traditional PK studies involve intermittent blood sampling and subsequent determination of drug concentrations in whole blood and plasma. The Culex automated blood sampler provides a way for blood withdrawal at preprogrammed intervals, which is more accurate and less labor intensive. Six rats in the PK group were implanted with a jugular vein catheter under an isofluorane anesthaesia. After the surgery, rats were allowed to recover for 96 hours with free access to food and water. The rats were dosed single i.v. at 3 mg/ml/kg with [^14C] DHA (20 μCi/kg), which was prepared as a 25% cremophore/0.9% saline solution, through the tail vein. […] PK evaluation of [^14C] DHA in plasma and whole blood, as well as unchanged DHA in plasma was conducted in individual rats.
# Total radioactivity in the collected tissue samples were quantified in duplicate. Weighed tissue aliquots (~0.2 g) were digested overnight in 2 ml of Solvable® tissue solubilizer (Perkin-Elmer Life and Analytical Sciences, Boston, MA) at 50°C. Coloured samples were decolourized by adding a maximum of 0.2 ml of 30% H2O2 for 30–60 minutes. Scintillation cocktail (Hyonic Fluor; Perkin-Elmer Boston. Massachusetts, USA) was then added and radioactivity determined in a Perkin-Elmer Tri-Carb 3100 TR scintillation spectrophotometer (Packard Instrument Co., Downers Grove, Illinois, USA). Faeces and intestinal contents were thoroughly homogenized before taking aliquots. Plasma was also analysed using the HPLC-ECD system to measure the concentration of unchanged DHA, as described by Li et al.
# The analysis of cold DHA in plasma was performed according to a previously described HPLC method with the following modifications: for simultaneous determination of artemisinin and DHA (artemisinin as an internal standard), the Agilent Eclipse XDB-C18 column 5 μm (4.6 × 150 mm) was used with an isocratic mobile phase consisting of 40% acetonitrile: 60% ESA Acid Metabolite A (70–4835) in the reductive mode (-400 mV) for the quantification of DHA. Validation and reproducibility were evaluated and a lower limit of quantitation (LLQ) of 2.31 ng/ml for DHA was determined. The inter- and intra-day coefficient of variation for accuracy and precision were all within ± 10%.
# For pharmacokinetics, the concentration-time data of [^14C] DHA in plasma and whole blood collected during the 192 hour treatment period was fitted to a three-compartment open model using a nonlinear, extended least-square fitting procedure (WinNonlin 5.2, Pharsight Corporation, Cary, NC) using weighted (1/concentration) nonlinear regression. The area under the curve (AUC) was determined by the linear trapezoidal rule with extrapolation to infinity based on the concentration of the last time point divided by the terminal rate constant. Extrapolations to time zero were done using zero concentration for intravenous dosing and using C0 values determined from the three-compartment model equation at time zero by i.v. route. Mean clearance rate (CL) was determined by dividing the dose by the AUCinf for i.v. injection. Mean residence time (MRT) was determined by dividing the area under the first moment curve (AUMC) by the AUC. The volume of distribution at steady state (Vss) was calculated as the product of CL and MRT. The concentration-time data of unchanged DHA was fitted to a two-compartment open model. Statistical analysis was conducted with Microsoft Excel using a Student's t-test for dependent samples to compare means of paired and unpaired samples between two groups.
# [2] = Mass balance and urinary/faecal elimination of [^14C] DHA; format: in vivo, rats; settings: rats i.v. 3 mg/kg
# Method: Metabolic cages were washed with a solution of 2% Count-off® (Perkin-Elmer Life and Analytical Sciences, Boston, Massachusetts, USA) and the volume was measured. Duplicate portions (0.1 ml urine; 1 ml cage rinse) of each sample were radio-assayed after the addition of scintillation cocktail. The weights of individual faecal samples were obtained and the samples were subsequently homogenized in four volumes of de-ionized water. Quadruplicate portions (1.0 ml) of each homogenate were decolourized with 30% hydrogen peroxide, and digested with Solvable® tissue solubilizer. After acidification with glacial acetic acid and addition of scintillation cocktail, samples were assayed for radioactivity. The samples were kept in at -20°C for two weeks prior to analysis.
# [3] = blood radioactivity, three-compartment, rats single i.v. 3 mg/20 μCi/kg
# [4] = blood radioactivity, rats single i.v. 3 mg/20 μCi/kg
# [5] = plasma radioactivity, three-compartment, rats single i.v. 3 mg/20 μCi/kg
# [6] = plasma radioactivity, rats single i.v. 3 mg/20 μCi/kg
# [7] = plasma radioactivity, rats single i.v. 3 mg/20 μCi/kg, listed as 14C-Dihydroartemisinin
# [8] = plasma, rats i.v. 3 mg/20 μCi/kg
# [9] = Feces, listed as [^14C] dihydroartemisinin, 3 mg/kg
# [10] = Total, through 192 hours, 3 mg/kg
# [11] = Total, through 192 hours, listed as [^14C] dihydroartemisinin, 3 mg/kg
# [12] = Urine, listed as [^14C] dihydroartemisinin, 3 mg/kg
smiles,measurement,setting,value
"C[C@@H]1CC[C@H]2[C@@H]([14CH3])C(O)O[C@@H]3O[C@@]4(C)CC[C@@H]1[C@]32OO4 (some centres unmarked) [[^14C] DHA, [16-^14C] DHA]",AUCinf.,[1]; [3],52690 ± 4971 ng·h/mL
same,CL,[1]; [3],0.7263 ± 0.5117 mL/min/kg
same,Cmax,[1]; [3],3105 ± 430 ng/mL
same,MRT,[1]; [3],148.57 ± 90.24 h
same,Vss,[1]; [3],10.792 ± 3.771 L/kg
same,t1/2 – alpha,[1]; [3],0.18 ± 0.02 h
same,t1/2 – beta,[1]; [3],19.68 ± 3.88 h
same,t1/2 – gamma (terminal),[1]; [3],122.13 ± 8.73 h
same,Cmax at first peak,[1]; [4],3105 ± 430 ng/mL
same,Cmax at fourth peak,[1]; [4],833 ± 99 ng/mL
same,Cmax at second peak,[1]; [4],1557 ± 955 ng/mL
same,Cmax at third peak,[1]; [4],978 ± 164 ng/mL
same,Tmax,[1]; [4],1.2 min
same,time of first peak,[1]; [4],0.02 h
same,time of fourth peak,[1]; [4],6 h
same,time of second peak,[1]; [4],0.94 h
same,time of third peak,[1]; [4],2.00 h
same,time of fourth peak,"[1]; blood radioactivity, rats single i.v. 3 mg/20 μCi/kg, listed as 14C-Dihydroartemisinin",6.00 h
same,fourth peak concentration of radioactivity,"[1]; blood, rats i.v. 3 mg/20 μCi/kg",833 ng equivalents/ml
same,third peak concentration of radioactivity,"[1]; blood, at two hours, rats i.v. 3 mg/20 μCi/kg",978 ng equivalents/ml
same,AUCinf.,[1]; [5],21014 ± 2718 ng·h/mL
same,CL,[1]; [5],2.4105 ± 0.3028 mL/min/kg
same,MRT,[1]; [5],57.00 ± 2.84 h
same,Vss,[1]; [5],8.216 ± 0.828 L/kg
same,t1/2 – alpha,[1]; [5],0.21 ± 0.05 h
same,t1/2 – gamma (terminal),[1]; [5],75.57 ± 7.34 h
same,time of second peak,"[1]; plasma radioactivity, rats i.v. 3 mg/20 μCi/kg",0.183 h
same,Cmax at fourth peak,[1]; [6],584 ± 65.5 ng/mL
same,Cmax at second peak,[1]; [6],2373 ± 195 ng/mL
same,Cmax at third peak,[1]; [6],863 ± 537 ng/mL
same,Tmax,[1]; [6],1.2 min
same,time of first peak,[1]; [6],0.02 h
same,time of fourth peak,[1]; [6],6 h
same,time of second peak,[1]; [6],0.19 h
same,time of third peak,[1]; [6],1.7 h
same,time of fourth peak,[1]; [7],6.00 h
same,time of third peak,[1]; [7],1.70 h
same,fourth peak concentration of radioactivity,[1]; [8],584 ng equivalents/ml
same,first peak concentration of radioactivity,[1]; [8],"3,446 ng equivalents/g"
same,second peak concentration of radioactivity,[1]; [8],"2,373 ng equivalents/ml"
same,third peak concentration of radioactivity,[1]; [8],863 ng equivalents/ml
same,total radioactivity in the plasma fraction relative to blood total,[1]; rats i.v.,less than 25%
same,duration of total radioactivity (long-lasting metabolites),"[1]; rats, plasma, urine and faeces, single i.v. 3 mg/20 μCi/kg",> 192 h
same,time of second peak,"[1]; whole blood radioactivity, rats i.v. 3 mg/20 μCi/kg",0.933 h
same,first peak concentration of radioactivity,"[1]; whole blood, rats i.v. 3 mg/20 μCi/kg","3,105 ng equivalents/g"
same,Fecal excretion of total radiolabel (Feces),[2]; 0.04–0.33 days,1.52 ± 0.58 % of dose
same,Fecal excretion of total radiolabel (Feces),[2]; 0.33–1.0 days,29.56 ± 11.75 % of dose
same,Fecal excretion of total radiolabel (Feces),[2]; 1–2 days,6.14 ± 1.71 % of dose
same,Fecal excretion of total radiolabel (Feces),[2]; 2–3 days,1.64 ± 0.78 % of dose
same,Fecal excretion of total radiolabel (Feces),[2]; 3–4 days,0.78 ± 0.31 % of dose
same,Fecal excretion of total radiolabel (Feces),[2]; 4–5 days,0.46 ± 0.09 % of dose
same,Fecal excretion of total radiolabel (Feces),[2]; 5–6 days,0.15 ± 0.06 % of dose
same,Fecal excretion of total radiolabel (Feces),[2]; 6–7 days,0.11 ± 0.05 % of dose
same,Fecal excretion of total radiolabel (Feces),[2]; 7–8 days,0.04 ± 0.04 % of dose
same,Peak height,"[2]; Feces, 3 mg/kg",292.39 μg/rat
same,Peak time,"[2]; Feces, 3 mg/kg",0.67 days
same,Peak height,[2]; [9],292.39 ± 150.29 μg/rat
same,Peak time,[2]; [9],0.67 ± 0.09 days
same,Fecal excretion of total radiolabel (Feces),[2]; [10],~40.39 % of dose and ~40 % of dose
same,Total radiolabel in Cage wash,[2]; [10],~1.88 % of dose
same,Fecal excretion of total radiolabel (Feces),[2]; [11],40.39 ± 13.22 % of dose
same,Total radiolabel in Cage wash,[2]; [11],1.88 ± 2.27 % of dose
same,Peak time,"[2]; Urine, 3 mg/kg",0.37 days
same,Peak height,[2]; [12],234.48 ± 33.74 μg/rat
same,Peak time,[2]; [12],0.37 ± 0.06 days
same,lag time of elimination,[2]; faeces,0.31 days
same,Ratio of excretion (urine/feces),[2],1.37 ± 0.39
same,"faecal excretion, range among animals",[2]; through 192 hours,27–53 % of the administered dose
same,"urinary excretion, range among animals",[2]; through 192 hours,44–61 % of the administered dose
same,total dose excreted within first 24 hours,[2]; urine and faeces,greater than 74.76%
same,lag time of elimination,[2]; urine,< 0.02 days
